The term IC50 denotes the concentration that gives 50% inhibition. A lower IC50 goes with higher potency.

These results are taken from patent US8546414B2, “Ion channel modulators and methods of use” (Vertex Pharmaceuticals Incorporated, priority 2004, dated 2013).

Type in all cases: cell-based
The target of one experiment is T1, NaV1.3 (Homo sapiens, UniProt Q9NY46).
T1 construct: expressed in transfected cells; host or cells: HEK293
The experiment is described as follows: VIPR optical membrane potential assay with electrical stimulation, NaV1.3. The note with it: Table 9, NaV 1.3 receptors. In short, it runs like this: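 HEK293 cells stably expressing NaV1.3, stained with CC2-DMPE (10 μM final) then DiSBAC2(3) with ABSC1, 30 min each at RT; compounds added with oxonol. Electrical stimulation for 3 s; 460/580 nm background-subtracted emission ratio Rf/Ri, normalised to tetracaine (positive) and untreated (negative) controls.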

The target of the next experiment is T2, CaV2.2 (Homo sapiens, UniProt Q00975).
T2 construct: expressed in transfected cells; host or cells: HEK293
Description: VIPR optical membrane potential assay with electrical stimulation, CaV2.2. The note with it: Table 9, CaV 2.2 receptors. In short, it runs like this:
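HEK293 cells stably expressing CaV2.2 stained with CC2-DMPE/DiSBAC2(3) voltage-sensitive dyes (10 μM final CC2-DMPE, 30 min, RT), then compound added and cells electrically stimulated for 3-5 s. Read-out: background-subtracted 460/580 nm emission ratio; response R=Rf/Ri (post- vs pre-stimulus ratio); antagonism seen as reduced response.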

In another experiment the target is NaV1.8 (Homo sapiens, UniProt Q9Y5Y9). Description: VIPR optical membrane potential assay, NaV1.8 (other subtypes in an analogous mode). The conditions noted are these: Table 9, NaV 1.8 receptors. As to the method: Antagonist properties of test compounds were assessed as follows. Cells expressing the NaV of interest were placed into microtiter plates. After an incubation period, the cells were stained with fluorescent dyes sensitive to the transmembrane potential. The test compounds were added to the microtiter plate. The cells were stimulated with either chemical or electrical means to evoke a NaV dependent membrane potential change from unblocked channels, which was detected and measured with trans-membrane potential-sensitive dyes. Antagonists were detected as a decreased membrane potential response to the stimulus.
24 hours before the assay on VIPR, CHO cells endogenously expressing a NaV 1.2 type voltage-gated NaV are seeded in 96-well poly-lysine coated plates at 60,000 cells per well. […] Plates are incubated in the dark for 30 minutes at room temperature. • 4) While the cells are being stained with coumarin, a […] oxonol solution in BS#2 is prepared. […] As before, the residual volume should be 40 μL. • 6) Upon removing the bath, the cells are loaded with 80 μL of the DiSBAC2(3) solution, after which test compound, dissolved in DMSO, is added to achieve the desired test concentration to each well from the drug addition plate and mixed thoroughly. The volume in the well should be roughly 121 μL. The cells are then incubated for 20-30 minutes. • 7) Once the incubation is complete, the cells are ready to be assayed on VIPR® with a sodium addback protocol. 120 μL of Bath solution #1 is added to stimulate the NaV dependent depolarization. […] tetracaine was used as an antagonist positive control for block of the NaV channel. Analysis of VIPR® Data:
The following is an example of how NaV1.3 inhibition activity is measured using the optical membrane potential method#2. Other subtypes are performed in an analogous mode in a cell line expressing the NaV of interest.

T1 sequence (Q9NY46 whole entry): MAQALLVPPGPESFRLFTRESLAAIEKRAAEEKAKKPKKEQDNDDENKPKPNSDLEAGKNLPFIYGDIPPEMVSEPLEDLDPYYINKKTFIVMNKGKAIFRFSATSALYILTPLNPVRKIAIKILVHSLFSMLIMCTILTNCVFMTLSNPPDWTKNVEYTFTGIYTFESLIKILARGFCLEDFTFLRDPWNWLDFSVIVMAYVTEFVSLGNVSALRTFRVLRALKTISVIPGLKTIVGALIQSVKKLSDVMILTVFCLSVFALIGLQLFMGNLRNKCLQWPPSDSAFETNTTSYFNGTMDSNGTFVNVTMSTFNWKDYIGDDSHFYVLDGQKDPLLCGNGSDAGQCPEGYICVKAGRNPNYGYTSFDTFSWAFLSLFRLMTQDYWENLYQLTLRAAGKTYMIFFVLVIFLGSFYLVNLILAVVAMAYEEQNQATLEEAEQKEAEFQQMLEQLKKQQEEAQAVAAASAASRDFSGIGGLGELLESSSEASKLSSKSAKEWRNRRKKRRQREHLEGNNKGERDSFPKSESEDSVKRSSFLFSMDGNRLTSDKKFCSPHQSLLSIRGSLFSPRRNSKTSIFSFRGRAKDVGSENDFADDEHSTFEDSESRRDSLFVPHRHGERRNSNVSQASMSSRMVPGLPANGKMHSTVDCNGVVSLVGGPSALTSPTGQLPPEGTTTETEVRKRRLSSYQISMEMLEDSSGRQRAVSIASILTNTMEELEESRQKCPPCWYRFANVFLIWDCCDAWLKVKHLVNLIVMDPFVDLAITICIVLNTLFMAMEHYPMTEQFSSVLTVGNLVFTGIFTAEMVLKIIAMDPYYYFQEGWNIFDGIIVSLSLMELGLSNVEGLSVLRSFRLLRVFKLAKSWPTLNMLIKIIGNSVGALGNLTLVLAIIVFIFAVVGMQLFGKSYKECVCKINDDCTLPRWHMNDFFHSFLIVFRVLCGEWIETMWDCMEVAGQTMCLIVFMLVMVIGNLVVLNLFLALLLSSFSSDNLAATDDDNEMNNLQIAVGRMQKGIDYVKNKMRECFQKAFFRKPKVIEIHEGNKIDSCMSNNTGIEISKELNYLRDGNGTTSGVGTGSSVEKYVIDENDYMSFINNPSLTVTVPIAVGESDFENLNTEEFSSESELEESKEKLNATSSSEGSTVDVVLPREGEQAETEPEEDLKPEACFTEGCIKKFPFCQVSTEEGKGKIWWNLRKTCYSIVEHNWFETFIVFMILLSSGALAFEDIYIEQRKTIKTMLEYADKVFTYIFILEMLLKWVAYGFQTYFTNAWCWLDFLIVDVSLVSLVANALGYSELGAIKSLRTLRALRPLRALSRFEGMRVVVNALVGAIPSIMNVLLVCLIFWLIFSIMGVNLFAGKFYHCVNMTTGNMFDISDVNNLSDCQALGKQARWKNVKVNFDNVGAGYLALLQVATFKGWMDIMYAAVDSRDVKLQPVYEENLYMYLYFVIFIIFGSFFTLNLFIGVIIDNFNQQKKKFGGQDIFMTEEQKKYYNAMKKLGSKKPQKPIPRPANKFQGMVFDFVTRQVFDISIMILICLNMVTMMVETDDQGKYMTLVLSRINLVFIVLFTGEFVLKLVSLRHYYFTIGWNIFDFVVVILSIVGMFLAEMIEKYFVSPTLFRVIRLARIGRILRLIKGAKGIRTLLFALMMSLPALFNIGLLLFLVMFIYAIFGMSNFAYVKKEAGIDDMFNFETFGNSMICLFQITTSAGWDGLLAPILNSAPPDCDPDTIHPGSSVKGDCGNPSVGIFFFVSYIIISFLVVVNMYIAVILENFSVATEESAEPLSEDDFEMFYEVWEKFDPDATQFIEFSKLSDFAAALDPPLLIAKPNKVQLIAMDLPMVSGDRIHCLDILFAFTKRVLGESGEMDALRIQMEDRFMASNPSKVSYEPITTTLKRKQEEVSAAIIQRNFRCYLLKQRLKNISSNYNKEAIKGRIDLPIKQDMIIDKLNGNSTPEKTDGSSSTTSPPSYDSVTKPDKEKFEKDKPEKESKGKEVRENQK
NaV1.8, sequence (Q9Y5Y9 whole entry): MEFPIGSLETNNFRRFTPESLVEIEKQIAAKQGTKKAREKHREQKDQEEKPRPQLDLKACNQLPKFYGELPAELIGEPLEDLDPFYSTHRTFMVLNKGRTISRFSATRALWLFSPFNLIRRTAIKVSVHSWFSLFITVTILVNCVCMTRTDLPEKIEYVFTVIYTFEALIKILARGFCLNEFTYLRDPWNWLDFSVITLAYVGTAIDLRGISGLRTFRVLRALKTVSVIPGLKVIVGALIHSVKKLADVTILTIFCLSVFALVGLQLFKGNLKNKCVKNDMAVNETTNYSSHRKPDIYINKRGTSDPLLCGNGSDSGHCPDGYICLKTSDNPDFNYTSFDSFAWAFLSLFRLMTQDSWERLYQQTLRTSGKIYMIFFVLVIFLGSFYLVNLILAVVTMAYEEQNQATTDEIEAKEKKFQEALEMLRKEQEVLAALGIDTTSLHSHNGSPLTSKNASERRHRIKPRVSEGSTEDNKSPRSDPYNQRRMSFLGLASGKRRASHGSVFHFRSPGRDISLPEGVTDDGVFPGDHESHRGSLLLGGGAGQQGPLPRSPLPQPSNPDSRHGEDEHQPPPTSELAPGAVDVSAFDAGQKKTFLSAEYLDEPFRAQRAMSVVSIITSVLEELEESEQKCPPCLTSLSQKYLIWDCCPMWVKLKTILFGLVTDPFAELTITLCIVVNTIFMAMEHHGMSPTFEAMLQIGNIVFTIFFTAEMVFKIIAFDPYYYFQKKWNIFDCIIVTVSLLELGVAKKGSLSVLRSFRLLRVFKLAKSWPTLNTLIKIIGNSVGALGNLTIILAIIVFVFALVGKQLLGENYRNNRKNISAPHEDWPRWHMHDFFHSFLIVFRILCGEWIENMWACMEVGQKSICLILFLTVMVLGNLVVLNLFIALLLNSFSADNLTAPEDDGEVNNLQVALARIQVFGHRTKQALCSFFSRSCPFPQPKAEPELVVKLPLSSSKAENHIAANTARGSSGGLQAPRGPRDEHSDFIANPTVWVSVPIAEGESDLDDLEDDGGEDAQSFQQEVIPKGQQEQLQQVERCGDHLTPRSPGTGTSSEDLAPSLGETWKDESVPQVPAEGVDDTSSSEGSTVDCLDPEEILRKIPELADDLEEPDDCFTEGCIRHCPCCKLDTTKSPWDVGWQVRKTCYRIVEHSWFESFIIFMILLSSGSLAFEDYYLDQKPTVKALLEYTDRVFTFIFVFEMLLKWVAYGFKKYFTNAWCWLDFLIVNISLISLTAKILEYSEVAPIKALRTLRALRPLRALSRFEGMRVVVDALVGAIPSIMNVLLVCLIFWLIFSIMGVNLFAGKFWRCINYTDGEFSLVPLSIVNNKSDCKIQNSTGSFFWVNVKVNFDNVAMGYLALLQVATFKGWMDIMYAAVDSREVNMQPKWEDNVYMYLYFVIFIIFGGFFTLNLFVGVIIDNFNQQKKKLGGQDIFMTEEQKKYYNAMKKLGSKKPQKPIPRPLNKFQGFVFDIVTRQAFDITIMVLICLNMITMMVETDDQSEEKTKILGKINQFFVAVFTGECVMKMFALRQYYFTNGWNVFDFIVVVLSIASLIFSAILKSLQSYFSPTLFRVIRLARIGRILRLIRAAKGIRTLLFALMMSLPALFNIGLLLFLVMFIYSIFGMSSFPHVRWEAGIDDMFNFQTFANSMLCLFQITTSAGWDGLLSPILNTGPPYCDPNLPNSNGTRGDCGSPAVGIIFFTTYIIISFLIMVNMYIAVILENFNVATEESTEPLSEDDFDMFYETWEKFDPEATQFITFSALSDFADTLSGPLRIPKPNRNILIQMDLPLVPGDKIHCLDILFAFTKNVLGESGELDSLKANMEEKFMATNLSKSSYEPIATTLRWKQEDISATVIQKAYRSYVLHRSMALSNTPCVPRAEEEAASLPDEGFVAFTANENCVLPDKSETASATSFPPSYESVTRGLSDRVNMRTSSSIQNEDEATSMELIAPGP

For `CC(C)N(Cc1ccccc1)C(=O)c1cnc(N2CCCCC2)nc1-c1ccccc1Cl` [compound 1], the results for the IC50 against NaV1.3, on CaV2.2 and against NaV1.8 were 2 to 10 µM, under 2 µM and 2 to 10 µM, respectively.

On to `CC(C)(C)c1ccc(CN(C(=O)c2cnc(N3CCSCC3)nc2-c2ccccc2F)C2CC2)cc1` [compound 2], for which the concentration for half-maximal inhibition (IC50) against NaV1.3 is over 10 µM; against CaV2.2, 2 to 10 µM; against NaV1.8, over 10 µM.

On to `CC(C)N(C(=O)c1cnc(N2CCCCC2)nc1-c1ccccc1Cl)c1cccc(C(C)(C)C)c1` [compound 3], for which the concentration for half-maximal inhibition (IC50) against NaV1.3 was 2 to 10 µM; on CaV2.2, over 10 µM; at NaV1.8, over 10 µM.

In the case of `CCCN(CC1CC1)c1ncc(C(=O)N(Cc2cccc(OC)c2)C(C)C)c(-c2ccccc2F)n1` [compound 4], the IC50 against NaV1.3 was 2 to 10 µM; against CaV2.2 it was under 2 µM; on NaV1.8, 2 to 10 µM.

For the compound `CC(C)N(Cc1cccc(O)c1)C(=O)c1cnc(N2CCOCC2)nc1-c1ccccc1F` [compound 5], the IC50 was over 10 µM against NaV1.3, 2 to 10 µM against CaV2.2 and over 10 µM at NaV1.8.

`O=C(c1cnc(N2CCCCC2)nc1-c1ccccc1Cl)N(Cc1ccc2c(c1)CCO2)C1CC1` [compound 7]: the concentration for half-maximal inhibition (IC50) against NaV1.3 was 2 to 10 µM; against CaV2.2, 2 to 10 µM; against NaV1.8, over 10 µM.

In the case of `COc1cccc(N(C(=O)c2cnc(N3CCCCC3)nc2-c2ccccc2Cl)C2CCCC2)c1` [compound 8], the values for the half-inhibitory concentration (IC50) against NaV1.3, against CaV2.2 and against NaV1.8 were 2 to 10 µM, 2 to 10 µM and over 10 µM, respectively.

Take `Cc1nc(N2CCOCC2)nc(-c2ccccc2F)c1C(=O)N(Cc1ccc(F)cc1)C1CC1` [compound 9]: the IC50 at NaV1.3 was 2 to 10 µM; against CaV2.2 it was 2 to 10 µM; on NaV1.8, over 10 µM.

`COCCCNC(=O)c1cnc(N2CCOCC2)nc1-c1cccc(C)c1` [compound 307]: the IC50 on NaV1.3 and against CaV2.2 was over 10 µM in each case.

For the compound `CCN(Cc1cccc(C)c1)C(=O)c1cnc(NCCNC(C)=O)nc1-c1ccccc1F` [compound 308], the half-maximal inhibitory concentration (IC50) against NaV1.3 and at CaV2.2 was over 10 µM in each case.

Turning to `CCC(C)NC(=O)c1cnc(NC2CCCCC2)nc1-c1ccc(C#N)cc1` (stereo not shown) [compound 309], the IC50 against NaV1.3 and against CaV2.2 was over 10 µM throughout.

In the case of `COCCCNC(=O)c1cnc(NC2CCCCC2)nc1-c1ccc(-c2ccccc2)cc1` [compound 310], the IC50 against NaV1.3 and at CaV2.2 was over 10 µM each time.

Take `CCN(Cc1ccccc1)C(=O)c1cnc(N2CCOCC2)nc1-c1ccc(C#N)cc1` [compound 313]: the IC50 at NaV1.3 and at CaV2.2 was over 10 µM throughout.

On to `CCN(C)c1ncc(C(=O)NCCOC)c(-c2ccc(C#N)cc2)n1` [compound 314], for which the half-inhibitory concentration (IC50) at NaV1.3 and against CaV2.2 was over 10 µM throughout.

Regarding `COc1ccc(CCNc2ncc(C(=O)N3CCC(C)CC3)c(-c3ccc(C#N)cc3)n2)cc1` [compound 316], the 50% inhibitory concentration (IC50) against NaV1.3 and against CaV2.2 was over 10 µM throughout.

As to `CCN(C)C(=O)c1cnc(N2CCOCC2)nc1-c1ccccc1F` [compound 317], the IC50 on NaV1.3 and against CaV2.2 was over 10 µM in each case.

As for `CC(=O)NCCNc1ncc(C(=O)N(Cc2ccccc2)C(C)C)c(-c2ccc(C#N)cc2)n1` [compound 319], the half-maximal inhibitory concentration (IC50) against NaV1.3 and against CaV2.2 was over 10 µM throughout.

In the case of `CCCCNc1ncc(C(=O)N2CC(C)CC(C)C2)c(-c2ccc(C#N)cc2)n1` (stereo not shown) [compound 320], the concentration for half-maximal inhibition (IC50) against NaV1.3 and against CaV2.2 was over 10 µM throughout.

`COCCNc1ncc(C(=O)N2CCOCC2)c(-c2cccc(C)c2)n1` [compound 321]: the IC50 against NaV1.3 and at CaV2.2 was over 10 µM throughout.

For `CC(C)CN(C)C(=O)c1cnc(N2CCCCC2)nc1-c1ccc(C#N)cc1` [compound 322], the IC50 against NaV1.3 and at CaV2.2 was over 10 µM each time.

Regarding `O=C(c1cnc(N2CCOCC2)nc1-c1ccccc1F)N1CCCCC1` [compound 323], the concentration for half-maximal inhibition (IC50) against NaV1.3 and on CaV2.2 was over 10 µM in each case.

With `COCCCNC(=O)c1cnc(N2CCOCC2)nc1-c1ccccc1F` [compound 324], the IC50 on NaV1.3 and on CaV2.2 was over 10 µM in each case.

For the compound `COCCNc1ncc(C(=O)N2CC(C)CC(C)C2)c(-c2cccc(C)c2)n1` (stereo not shown) [compound 325], the IC50 against NaV1.3 and on CaV2.2 was over 10 µM each time.

Take `CC(C)N(Cc1ccccc1)C(=O)c1cnc(N2CCOCC2)nc1-c1ccccc1F` [compound 326, 4-(2-Fluoro-phenyl)-2-morpholin-4-yl-pyrimidine-5-carboxylic acid benzyl-isopropyl-amide]: the IC50 at NaV1.3 is over 10 µM; against CaV2.2, 2 to 10 µM.

`CCN(Cc1ccccc1)C(=O)c1cnc(NCCCOC)nc1-c1ccccc1F` [compound 327]: the IC50 against NaV1.3 and against CaV2.2 was over 10 µM each time.

Turning to `CCC1CCC(C)N(C(=O)c2cnc(NCCc3ccc(OC)cc3)nc2-c2ccc(C#N)cc2)C1` (stereo not shown) [compound 329], the IC50 on NaV1.3 is over 10 µM; against CaV2.2, 2 to 10 µM.

Turning to `COCCCNc1ncc(C(=O)NCC2CCCCC2)c(-c2cccc(C)c2)n1` [compound 330], the IC50 at NaV1.3 and on CaV2.2 was over 10 µM each time.

Turning to `CCC(C)NC(=O)c1cnc(N(C)CCc2ccc(OC)c(OC)c2)nc1-c1ccc(C#N)cc1` (stereo not shown) [compound 331], the IC50 against NaV1.3 and against CaV2.2 was over 10 µM in each case.

On to `CCCCNC(=O)c1cnc(NCCCOC)nc1-c1cccc(C)c1` [compound 332], for which the half-maximal inhibitory concentration (IC50) at NaV1.3 and against CaV2.2 was over 10 µM each time.

Take `CC1CC(C)CN(C(=O)c2cnc(N3CCOCC3)nc2-c2ccc(C#N)cc2)C1` (stereo not shown) [compound 333]: the half-maximal inhibitory concentration (IC50) against NaV1.3 and at CaV2.2 was over 10 µM throughout.

For `CC(=O)N1CCN(c2ncc(C(=O)N3CCC(C)CC3)c(-c3ccc(-c4ccccc4)cc3)n2)CC1` [compound 334], the results for the concentration for half-maximal inhibition (IC50) against NaV1.3 and on CaV2.2 were over 10 µM and 2 to 10 µM, respectively.

In the case of `CCC(C)Nc1ncc(C(=O)N(C)CC)c(-c2ccc(C#N)cc2)n1` (stereo not shown) [compound 336], the half-maximal inhibitory concentration (IC50) against NaV1.3 and against CaV2.2 was over 10 µM throughout.

As for `CC1CCN(C(=O)c2cnc(N3CCOCC3)nc2-c2ccccc2F)CC1` [compound 337], the IC50 against NaV1.3 and at CaV2.2 was over 10 µM each time.

On to `COCCCNC(=O)c1cnc(N2CCN(C(C)=O)CC2)nc1-c1cccc(C)c1` [compound 339], for which the IC50 at NaV1.3 and on CaV2.2 was over 10 µM in each case.

For the compound `CCN(Cc1ccccc1)C(=O)c1cnc(N2CCCC2)nc1-c1ccc(C#N)cc1` [compound 340], the half-inhibitory concentration (IC50) at NaV1.3 and against CaV2.2 was over 10 µM in each case.

As for `CC(C)CN(CC(C)C)C(=O)c1cnc(N2CCCC2)nc1-c1ccc(C#N)cc1` [compound 341], the IC50 on NaV1.3 and against CaV2.2 was over 10 µM throughout.

Consider `O=C(c1cnc(NCc2ccc3c(c2)OCO3)nc1-c1ccc(-c2ccccc2)cc1)N1CCCCC1` [compound 342], for which the IC50 at NaV1.3 and against CaV2.2 was over 10 µM each time.

With `CCN(C)c1ncc(C(=O)N2CCC(C)CC2)c(-c2cccc(C)c2)n1` [compound 343], the IC50 on NaV1.3 and against CaV2.2 was over 10 µM each time.

On to `CCCCNc1ncc(C(=O)N2CCC(C)CC2)c(-c2ccc(C#N)cc2)n1` [compound 344], for which the IC50 at NaV1.3 and on CaV2.2 was over 10 µM each time.

For the compound `N#Cc1ccc(-c2nc(NCC3CCCCC3)ncc2C(=O)NCCc2cccc(F)c2)cc1` [compound 345], the IC50 at NaV1.3 and against CaV2.2 was over 10 µM throughout.

With `N#Cc1ccc(-c2nc(N3CCCC3)ncc2C(=O)NCC2CCCCC2)cc1` [compound 346], the 50% inhibitory concentration (IC50) against NaV1.3 and against CaV2.2 was over 10 µM in each case.

On to `CCN(C)c1ncc(C(=O)N2CC(C)CC(C)C2)c(-c2ccc(C#N)cc2)n1` (stereo not shown) [compound 347], for which the IC50 against NaV1.3 and on CaV2.2 was over 10 µM each time.

As for `COCCNc1ncc(C(=O)N(CC(C)C)CC(C)C)c(-c2cccc(C)c2)n1` [compound 348], the IC50 against NaV1.3 and against CaV2.2 was over 10 µM in each case.

As to `COCCCNC(=O)c1cnc(N2CCOCC2)nc1-c1ccc(C#N)cc1` [compound 349], the IC50 at NaV1.3 and against CaV2.2 was over 10 µM in each case.

With `CCN(Cc1ccccc1)C(=O)c1cnc(N2CCOCC2)nc1-c1ccccc1F` [compound 350], the IC50 at NaV1.3 and against CaV2.2 was over 10 µM in each case.

With `O=C(c1cnc(NCC2CCCCC2)nc1-c1ccccc1F)N1CCOCC1` [compound 351], the IC50 on NaV1.3 and against CaV2.2 was over 10 µM throughout.
